B1: TRAIL: protein functioning as a ligand that induces apoptosis; cytokine binding death receptors DR4 and DR5 (protein, UniProt P50591 1-281, looked up)
Tumor necrosis factor ligand …: MAMMEVQGGPSLGQTCVLIVIFTVLLQSLCVAVTYVYFTNELKQMQDKYSKSGIACFLKEDDSYWDPNDEESMNSPCWQVKWQLRQLVRKMILRTSEETISTVQEKQQNISPLVRERGPQRVAAHITGTRGRSNTLSSPNSKNEKALGRKINSWESSRSGHSFLSNLHLRNGELVIHEKGFYYIYSQTYFRFQEEIKENTKNDKQMVQYIYKYTSYPDPILLMKSARNSCWSKDAEYGLYSIYQGGIFELKENDRIFVSVTNEHLIDMDHEASFFGAFLVG

Columns and labels:
[1] = tested on: DR4; experiment: DR4 mRNA expression by reverse transcriptase PCR, LNCaP cells; type: cell-based; details: 20 μM Tet, 0-48 hours, normalized to GAPDH
Protocol: (§1) LNCaP and C4-2b cells were used as model cell lines that show resistance to TRAIL. […] In the present study we evaluated the effects of TET alone or in combination with TRAIL and TNF-α. Prostate cancer cell lines LNCaP and LNCaP derived C4-2b were used for this study. Cell lines were treated with TET, TRAIL, or TNF-αalone or in various combinations for different time points. mRNA expression was quantitated via Real Time-PCR and changes in protein expression were analyzed by Western Blot analysis. Cytotoxicity was evaluated using the Crystal violet and MTT survival assay. Turning to FIGS. 6-11, LNCaP and C4-2b cells were incubated in the presence of 20 μM of Tet for different time points (0-48 hours). Total RNA was prepared from the cells and cDNA was transcribed. Reverse transcriptase PCR was performed to determine the mRNA levels of DR4, DR5 and TNF-α. GAPDH was used for normalization. Each data point represents mean+/−standard deviation of three independent gels.

[2] = tested on: DR5; experiment: DR5 mRNA expression by reverse transcriptase PCR, LNCaP cells; type: cell-based; details: 20 μM Tet, 0-48 hours, normalized to GAPDH
Protocol: as §1

[3] = tested on: TNFR1; experiment: TNFR1 mRNA expression by reverse transcriptase PCR, LNCaP cells; type: cell-based; details: 20 μM Tet, 0-48 hours, normalized to GAPDH
[4] = tested on: DR4; experiment: DR4 mRNA expression by reverse transcriptase PCR, C4-2b cells; type: cell-based; details: 20 μM Tet, 0-48 hours, normalized to GAPDH
Protocol: as §1

[5] = tested on: DR5; experiment: DR5 mRNA expression by reverse transcriptase PCR, C4-2b cells; type: cell-based; details: 20 μM Tet, 0-48 hours, normalized to GAPDH
Protocol: as §1

[6] = tested on: TNFR1; experiment: TNFR1 mRNA expression by reverse transcriptase PCR, C4-2b cells; type: cell-based; details: 20 μM Tet, 0-48 hours, normalized to GAPDH
[7] = tested on: DR4; experiment: DR4 protein level (array / western blot densitometry), LNCaP cells; type: cell-based; details: 20 μM TET, versus untreated cells
Protocol: (§2) LNCaP and C4-2b cells were used as model cell lines that show resistance to TRAIL. […] In the present study we evaluated the effects of TET alone or in combination with TRAIL and TNF-α. Prostate cancer cell lines LNCaP and LNCaP derived C4-2b were used for this study. Cell lines were treated with TET, TRAIL, or TNF-αalone or in various combinations for different time points. mRNA expression was quantitated via Real Time-PCR and changes in protein expression were analyzed by Western Blot analysis. Cytotoxicity was evaluated using the Crystal violet and MTT survival assay. […] LNCaP cells were either untreated or treated with 20 μM TET for 24 hours. Arrays were incubated with 400 μg of each cell lysate. Data shown in FIG. 1 are from a 1 minute exposure to X-ray film. […] Fold increase was calculated with the density of untreated LNCaP cells as a reference. Averages are representative of 2 independent experiments. Error bars represent standard deviation. Turning to FIGS. 2A-2C, C4-2b cells were treated with 20 μM TET for 0-48 hours. After the treatments cells were lysed and DR4, DR5 and TNFR1 levels were detected by western blotting. Similarly, in FIGS. 3-5, densiomentry fold increase for DR4, DR5 and TNFR1 western blots is shown. The fold increase was calculated with the density of untreated LNCaP cells as a reference. GAPDH was used as loading control. […]

[8] = tested on: DR5; experiment: DR5 protein level (array / western blot densitometry), LNCaP cells; type: cell-based; details: 20 μM TET, versus untreated cells
Protocol: as §2

[9] = tested on: TNFR1; experiment: TNFR1 protein level (array / western blot densitometry), LNCaP cells; type: cell-based; details: 20 μM TET, versus untreated cells
Protocol: as §2

[10] = tested on: DR4; experiment: DR4 protein level by western blotting, C4-2b cells; type: cell-based; details: 20 μM TET, 0-48 hours, GAPDH loading control
Protocol: (§3) LNCaP and C4-2b cells were used as model cell lines that show resistance to TRAIL. […] In the present study we evaluated the effects of TET alone or in combination with TRAIL and TNF-α. Prostate cancer cell lines LNCaP and LNCaP derived C4-2b were used for this study. Cell lines were treated with TET, TRAIL, or TNF-αalone or in various combinations for different time points. mRNA expression was quantitated via Real Time-PCR and changes in protein expression were analyzed by Western Blot analysis. Cytotoxicity was evaluated using the Crystal violet and MTT survival assay. Turning to FIGS. 2A-2C, C4-2b cells were treated with 20 μM TET for 0-48 hours. After the treatments cells were lysed and DR4, DR5 and TNFR1 levels were detected by western blotting. Similarly, in FIGS. 3-5, densiomentry fold increase for DR4, DR5 and TNFR1 western blots is shown. The fold increase was calculated with the density of untreated LNCaP cells as a reference. GAPDH was used as loading control. Averages are representative of 3 independent experiments. Error bars represent standard deviation.

[11] = tested on: DR5; experiment: DR5 protein level by western blotting, C4-2b cells; type: cell-based; details: 20 μM TET, 0-48 hours, GAPDH loading control
Protocol: as §3

[12] = tested on: TNFR1; experiment: TNFR1 protein level by western blotting, C4-2b cells; type: cell-based; details: 20 μM TET, 0-48 hours, GAPDH loading control
Protocol: as §3

[13] = tested on: LNCaP cells; experiment: Cytotoxicity by crystal violet staining and MTT survival assay, LNCaP cells; type: cell-based; details: for response of cells following exposure to the agent alone: TRAIL or TNF-α alone
Protocol: (§4) LNCaP and C4-2b cells were used as model cell lines that show resistance to TRAIL. […] In the present study we evaluated the effects of TET alone or in combination with TRAIL and TNF-α. Prostate cancer cell lines LNCaP and LNCaP derived C4-2b were used for this study. Cell lines were treated with TET, TRAIL, or TNF-αalone or in various combinations for different time points. mRNA expression was quantitated via Real Time-PCR and changes in protein expression were analyzed by Western Blot analysis. Cytotoxicity was evaluated using the Crystal violet and MTT survival assay.
(§5) Turning to FIGS. 12-15, pretreatment of both cell lines with TET for 12 hours, followed by TRAIL and TNF-α treatment for another 24 hours increased the apoptosis inducing potential of TRAIL and TNF-α in these cells. […] For FIGS. 12 and 14, LNCap (FIG. 12) and C4-2b (FIG. 14) cells treated with or without TET, TRAIL, and TNFα were crystal violet stained. Wells are representative of at least three repeats. For FIGS. 13 and 15, LNCap (FIG. 13) and C4-2b (FIG. 15) cells were subjected to MTT assay using the same experimental plan as in FIGS. 12, 14 respectively. Data were normalized to the untreated control at the respective concentrations of TET, TRAIL and TNF-α. Data are representative of at least three repeats.

[14] = tested on: C4-2b cells; experiment: Cytotoxicity by crystal violet staining and MTT survival assay, C4-2b cells; type: cell-based; details: for response of cells following exposure to the agent alone: TRAIL or TNF-α alone
Protocol: as §4, §5

[15] = tested on: prostate cancer cells; experiment: Apoptosis in prostate cancer cells in vitro; type: cell-based
[16] = tested on: prostate cancer cells; experiment: Apoptosis in prostate cancer cells in vivo
[17] = TET pretreatment 12 hours, then TRAIL and TNF-α for another 24 hours

| Molecule | mRNA level of DR4 [1] | mRNA level of DR5 [2] | mRNA level of TNFR1 [3] | mRNA level of DR4 [4] | mRNA level of DR5 [5] | mRNA level of TNFR1 [6] | protein level of DR4 [7] | protein level of DR5 [8] | protein level of TNFR1 [9] | protein level of DR4 [10] | protein level of DR5 [11] | protein level of TNFR1 [12] | apoptosis inducing potential of TRAIL and TNF-α after TET pretreatment [13, 17] | apoptosis response to soluble h-TRAIL and TNF-α in combination with TET ([13]; TET treated cells in vitro) | apoptosis inducing potential of TRAIL and TNF-α after TET pretreatment [14, 17] | apoptosis response to soluble h-TRAIL and TNF-α in combination with TET ([14]; TET treated cells in vitro) | apoptosis in prostate cancer cells [15] | apoptosis in prostate cancer cells [16] | response of cells following exposure to the agent alone [13] | response of cells following exposure to the agent alone [14] |
| --- | --- | --- | --- | --- | --- | --- | --- | --- | --- | --- | --- | --- | --- | --- | --- | --- | --- | --- | --- | --- |
| COc1ccc2cc1Oc1ccc(cc1)C[C@H]1c3cc(c(OC)cc3CCN1C)Oc1c(OC)c(OC)cc3c1[C@H](C2)N(C)CC3 [TET, Tetrandrine] | increased | increased | increased | increased | increased | increased | increased | increased | increased | increased | increased | increased | increased | synergistic apoptosis response | increased | synergistic apoptosis response | promotes apoptosis | promotes apoptosis |  |  |
| TNF-α |  |  |  |  |  |  |  |  |  |  |  |  |  |  |  |  |  |  | did not show a significant response | did not show a significant response |
| B1 |  |  |  |  |  |  |  |  |  |  |  |  |  |  |  |  |  |  | did not show a significant response | did not show a significant response |

— patent US20170281728A1, “METHOD FOR TREATING CANCER USING TETRADRINE” (Board of Supervisors of Louisiana State University and …, priority 2016, published 2017)
